Data from patent publication US12583841B2, “Tetrahydropyrrolocyclic compound and application thereof” (Breakthrough Pharmaceuticals Inc., priority 2021, dated 2026).

Tests used:
[1] = Drug concentration in cerebrospinal fluid of Beagle dogs; assay type: in vivo; conditions: male, po, Beagle dog, p.o. 5 mg/kg
Protocol: 2 healthy male Beagle dogs were selected, and after intragastric administration of the test compound at 5 mg/kg, cerebrospinal fluid samples were taken at 0.5 h, 2 h and 6 h after the administration, respectively. Quantitative analysis of all biological samples was carried out by LC-MS/MS method, and the WinNonlin™ Version 6.3 (Pharsight, Mountain View, CA) pharmacokinetic software was used to calculate the relevant pharmacokinetic parameters by the non-compartmental model linear logarithmic trapezoidal method. AUC0-last represents area under the plasma concentration-time curve from time zero to the last detectable concentration time point; p.o. represents oral; i.v. represents intravenous injection; T1/2 represents half-life; CL represents clearance rate; Vd represents apparent volume of distribution; Cmax represents peak concentration; Tmax represents time to peak; F % represents oral bioavailability.

OX2R = target: T1, OX2R (Homo sapiens, UniProt O43614); test: FLIPR intracellular calcium antagonism test, HEK293-OX2R cells; assay type: cell-based; conditions: Orexin A at EC70, read-out: hOX2R IC50
T1 construct: expressed in transfected cells
T1 sequence (O43614 1-444): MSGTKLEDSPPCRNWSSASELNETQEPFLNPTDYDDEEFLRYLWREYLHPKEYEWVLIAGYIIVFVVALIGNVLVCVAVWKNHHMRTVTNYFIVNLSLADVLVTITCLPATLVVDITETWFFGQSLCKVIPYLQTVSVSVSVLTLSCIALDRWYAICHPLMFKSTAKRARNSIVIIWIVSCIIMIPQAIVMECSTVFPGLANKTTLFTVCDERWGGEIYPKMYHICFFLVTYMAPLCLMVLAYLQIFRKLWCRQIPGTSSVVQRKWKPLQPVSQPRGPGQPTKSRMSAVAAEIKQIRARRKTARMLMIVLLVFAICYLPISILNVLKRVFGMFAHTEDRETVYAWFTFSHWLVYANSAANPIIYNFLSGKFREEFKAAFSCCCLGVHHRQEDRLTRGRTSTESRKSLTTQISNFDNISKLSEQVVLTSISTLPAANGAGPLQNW
Protocol: The change of intracellular calcium signal was detected by FLIPR, and the antagonism of the compounds on OX1R and OX2R receptors was evaluated by using IC50 value of the compounds as an index.
• Cell lines: Transfected HEK293-OX1R and HEK293-OX2R stable cell lines • HEK293-OX1R cell culture medium (DMEM, Invitrogen #11960-044, 10% serum Gibco #10099141, L-Glutamine 1×, Gibco #25030, sodium pyruvate 1×, Gibco #11360, Geneticin 300 μg/mL, Gibco #10131) • HEK293-OX2R cell culture medium (DMEM, Invitrogen #11960-044, 10% serum Gibco #10099141, L-Glutamine 1×, Gibco #25030, sodium pyruvate 1×, Gibco #11360, Geneticin 300 μg/mL, Gibco #10131, Blasticin 2 μg/mL, Invitrogen #R21001)
Experimental Steps and Methods: • a) Cell seeding (HEK293-OX1R and HEK293-OX2R cells) • 1) preheating the culture medium, trypsin and DPBS under water bath at 37° C.; pipetting and removing the medium of cell culture and washing same with 10 mL of DPBS; • 2) adding the preheated trypsin to a culture flask, rotating the culture flask so that the trypsin evenly covered the culture flask, and putting the culture flask in a 37° C., 5% CO2 incubator for digestion for 1-2 min; • 3) suspending the cells with 10-15 mL of medium for each T150 and centrifuging at 800 rpm for 5 min; resuspending the cells with 10 mL of medium, pipetting 1 mL of the cell suspension and counting with Vi-cell; • 4) diluting OX1R cells with medium to 5×10^5 cells/mL, and diluting OX2R cells with medium to 4×10^5 cells/mL, and adding the diluted cells to 384 plate (Greiner.781946) with a multi-channel pipette (50 μL/well, 25000 cells/well for OX1R cells, 20000 cells/well for OX2R cells); placing the cell plate in a 37° C., 5% CO2 incubator overnight. • b) Compound loading: • 1) diluting the compound to 20 mM with DMSO, 3-fold dilution, 8 gradients, duplicate wells, and adding same to a compound plate with an Echo liquid handler; then adding 20 μL of buffer to maintain the final concentration of DMSO of 0.1%. • c) FLIPR experiment: • 1) washing off the cell culture medium in the 384 plate with a vacuum pump, adding […] Direct fluorescent dye, incubating in 37° C., 5% CO2 incubator for 1 h, and balancing at room temperature for another 10 min. • 2) EC50 test: manually diluting Orexin A on ice, 3-fold dilution, 8 gradients, duplicate wells; preparing a DMSO plate and keep the DMSO concentration to be 0.5%; putting the cell plate, OrexinA plate, and DMSO plate in FLIPR respectively, and reading the fluorescence value. • 3) calculating the EC70 value based on the EC50 value of Orexin A; preparing a 5×EC70 solution, adding same to 384 compound plate with a multi-channel pipette, and storing on ice; • 4) putting the compound plate, 5×EC70 plate, cell plate, and FLIPR tip in sequence in FLIPR, running the program, and reading the fluorescence value. • d) Data analyzing: using Prism5.0 to analyze the data, and calculating the IC50 value of the compound.

SD rats = test: Effect on spontaneous activities of SD rats; assay type: in vivo; conditions: SD rat, 30 mg/kg, recorded 60 min from 30 minutes after administration, Mean±SEM; blank vehicle 31.91 ± 3.92
Protocol: Test purpose: to judge the effect of the test compound on the activity of rats by measuring the spontaneous activity distance of rats in a period of time.
Test scheme: 12 male SD rats aged 7 weeks were adapted in the laboratory 1 day before the start of the test. On the day of the experiment, the rats were randomly divided into 2 groups according to their body weight, with 6 rats in each group, and the rats were given blank vehicle and compound 8 (30 mg/kg), respectively. The animals were put into a test box 30 minutes after administration, and the distance data of animal activity were recorded every 5 min with Any-maze software, and the recording was continued for 60 min. By comparing the total distance of animal activity within the recording time, it is judged whether the drug has a significant effect on the spontaneous activity of the animal. The experimental data were represented by the mean±[…] (Mean±SEM). The statistical method adopted one-way analysis of variance plus Dunnett's multiple comparisons. P<0.05 was represented as *, p<0.01 was represented as **, and p<0.001 was represented as ***.

COc1ccc(-n2nccn2)c(C(=O)N2C(c3nc4ccc(OC)cc4[nH]3)CC3CC32)c1 (centres unmarked) [Compound 8]
concentration at 0.5 h ([1]; 0.5 h): 1160 nM
concentration at 2 h ([1]; 2 h): 773 nM
concentration at 6 h ([1]; 6 h): 110 nM
IC50 (OX2R): 42 nM
Spontaneous activity distance (SD rats): 14.73 ± 1.38 meters
